US20230339886A1 (University of Florida Research Foundation, Incorporated, priority 2020, published 2023)

Target: T1, REV-ERBα LBD (human; residues 281-614 Δ324-422) (Homo sapiens, UniProt P20393, DEL324-422)
T1 construct: 6×Histag-REV-ERBα LBD (human; residues 281-614 Δ324-422); made in house; host or cells: Escherichia coli
Assay: TR-FRET corepressor interaction assay (REV-ERBα LBD, FITC-SMRT peptide)
Format: biochemical
Conditions: Table 2, read-out: REVERBα agonism (EC50 class, FRET assay)
Procedure, shortened: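 Compound serial dilutions (in DMSO, triplicate) incubated 2 h at 4 °C; Tb donor excited at 340 nm, emission read at 495 nm and FITC acceptor at 520 nm. TR-FRET ratio (520/495 nm) plotted against ligand concentration and fitted to a sigmoidal dose-response curve.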

T1 sequence (P20393 with tags, fused parts or gaps DEL324-422): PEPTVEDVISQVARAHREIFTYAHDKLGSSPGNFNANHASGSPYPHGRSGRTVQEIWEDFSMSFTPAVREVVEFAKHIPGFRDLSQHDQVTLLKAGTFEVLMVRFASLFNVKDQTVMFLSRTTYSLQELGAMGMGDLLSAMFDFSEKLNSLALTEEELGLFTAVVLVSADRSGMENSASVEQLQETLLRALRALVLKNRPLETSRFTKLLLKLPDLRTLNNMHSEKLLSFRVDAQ
T1 sequence (Q9Y618 2335-2356 partner limits assumed): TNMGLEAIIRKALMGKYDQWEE

An EC50 of 500 to 3000 nM was found for `CC(C)(C)Cn1cc([C@H](NS(=O)(=O)C2CC2)C(F)(F)F)c2cc(F)c(-c3ccccc3)cc21` [Example 350, (S)—N-(2,2,2-trifluoro-1-(5-fluoro-1-neopentyl-6-phenyl-1H-indol-3-yl)ethyl)cyclopropanesulfonamide] in this work.

An EC50 of less than 500 nM was found for `CC(C)(C)Cn1cc([C@H](NS(=O)(=O)C2CC2)C(F)(F)F)c2cc(F)c(-c3c(F)cccc3C(F)(F)F)cc21` [Example 351, N-((1S)-2,2,2-trifluoro-1-(5-fluoro-6-(2-fluoro-6-(trifluoromethyl)phenyl)-1-neopentyl-1H-indol-3-yl)ethyl)cyclopropanesulfonamide] in this work.

An EC50 of less than 500 nM was found for `Cc1c(-c2ccccc2C(F)(F)F)ccc2c([C@H](NS(=O)(=O)C3CC3)C(F)(F)F)cn(CC(C)(C)C)c12` [Example 353, (S)—N-(2,2,2-trifluoro-1-(7-methyl-1-neopentyl-6-(2-(trifluoromethyl)phenyl)-1H-indol-3-yl)ethyl)cyclopropanesulfonamide] in this work.

An EC50 of less than 500 nM was found for `CC(C)(C)Cn1cc([C@H](NS(=O)(=O)C2CC2)C(F)(F)F)c2cc(F)c(-c3ccc(F)cc3C(F)(F)F)cc21` [Example 355, (S)—N-(2,2,2-trifluoro-1-(5-fluoro-6-(4-fluoro-2-(trifluoromethyl)phenyl)-1-neopentyl-1H-indol-3-yl)ethyl)cyclopropanesulfonamide] in this work.

An EC50 of 500 to 3000 nM was found for `CC(C)(C)Cn1cc([C@H](NS(=O)(=O)C2CC2)C(F)(F)F)c2cc(C(F)(F)F)c(-c3ccccc3C(F)(F)F)cc21` [Example 357, (S)—N-(2,2,2-trifluoro-1-(1-neopentyl-5-(trifluoromethyl)-6-(2-(trifluoromethyl)phenyl)-1H-indol-3-yl)ethyl)cyclopropanesulfonamide] in this work.

An EC50 of less than 500 nM was found for `CC(C)(C)Cn1cc([C@H](NS(=O)(=O)C2CC2)C(F)(F)F)c2cc(F)c(-c3cccc(F)c3C(F)(F)F)cc21` [Example 360, (S)—N-(2,2,2-trifluoro-1-(5-fluoro-6-(3-fluoro-2-(trifluoromethyl)phenyl)-1-neopentyl-1H-indol-3-yl)ethyl)cyclopropanesulfonamide] in this work.

An EC50 of less than 500 nM was found for `CC(C)(C)Cn1cc([C@H](NS(=O)(=O)C2CC2)C(F)(F)F)c2cc(F)c(-c3ccncc3Cl)cc21` [Example 361, (S)—N-(1-(6-(3-chloropyridin-4-yl)-5-fluoro-1-neopentyl-1H-indol-3-yl)-2,2,2-trifluoroethyl)cyclopropanesulfonamide] in this work.

An EC50 of 500 to 3000 nM was found for `CC(C)(C)Cn1cc([C@H](NS(=O)(=O)C(C)(C)C)C(F)(F)F)c2cc(F)c(-c3ccccc3C(F)(F)F)cc21` [Example 366, (S)-2-methyl-N-(2,2,2-trifluoro-1-(5-fluoro-1-neopentyl-6-(2-(trifluoromethyl)phenyl)-1H-indol-3-yl)ethyl)propane-2-sulfonamide] in this work.

An EC50 of less than 500 nM was found for `CC(C)(C)Cn1cc([C@H](NS(=O)(=O)C2CC2)C(F)(F)F)c2ccc(-c3ccc(F)cc3C(F)(F)F)cc21` [Example 367, (S)—N-(2,2,2-trifluoro-1-(6-(4-fluoro-2-(trifluoromethyl)phenyl)-1-neopentyl-1H-indol-3-yl)ethyl)cyclopropanesulfonamide] in this work.

An EC50 of 500 to 3000 nM was found for `Cc1c(Br)ccc2c([C@H](NS(=O)(=O)C3CC3)C(F)(F)F)cn(CC(C)(C)C)c12` [Example 368, (S)—N-(1-(6-bromo-7-methyl-1-neopentyl-1H-indol-3-yl)-2,2,2-trifluoroethyl)cyclopropanesulfonamide] in this work.

An EC50 of 500 to 3000 nM was found for `CC(C)(C)Cn1cc([C@H](NS(=O)(=O)C2CC2)C(F)(F)F)c2ccc(Br)c(F)c21` [Example 369, (S)—N-(1-(6-bromo-7-fluoro-1-neopentyl-1H-indol-3-yl)-2,2,2-trifluoroethyl)cyclopropanesulfonamide] in this work.

An EC50 of less than 500 nM was found for `CC(C)Cn1cc([C@H](NS(=O)(=O)C2CC2)C(F)(F)F)c2ccc(-c3ccnn3C)cc21` [Example 370, (S)—N-(2,2,2-trifluoro-1-(1-isobutyl-6-(1-methyl-1H-pyrazol-5-yl)-1H-indol-3-yl)ethyl)cyclopropanesulfonamide] in this work.

An EC50 of 500 to 3000 nM was found for `CNS(=O)(=O)N[C@@H](c1cn(CC(C)(C)C)c2cc(-c3ccccc3C(F)(F)F)c(F)cc12)C(F)(F)F` [Example 371] in this work.

An EC50 of 500 to 3000 nM was found for `CC(C)(C)Cn1cc([C@H](NS(=O)(=O)C2CCCC2)C(F)(F)F)c2cc(F)c(-c3ccccc3C(F)(F)F)cc21` [Example 372, (S)—N-(2,2,2-trifluoro-1-(5-fluoro-1-neopentyl-6-(2-(trifluoromethyl)phenyl)-1H-indol-3-yl)ethyl)cyclopentanesulfonamide] in this work.

An EC50 of less than 500 nM was found for `CC(C)(C)Cn1cc([C@H](NS(=O)(=O)C2CC2)C(F)(F)F)c2ccc(-c3c(F)cccc3C(F)(F)F)cc21` [Example 373, (S)—N-(2,2,2-trifluoro-1-(6-(2-fluoro-6-(trifluoromethyl)phenyl)-1-neopentyl-1H-indol-3-yl)ethyl)cyclopropanesulfonamide] in this work.

An EC50 of less than 500 nM was found for `CC(C)(C)Cn1cc([C@H](NS(=O)(=O)C2CCC2)C(F)(F)F)c2cc(F)c(-c3ccccc3C(F)(F)F)cc21` [Example 374, (S)—N-(2,2,2-trifluoro-1-(5-fluoro-1-neopentyl-6-(2-(trifluoromethyl)phenyl)-1H-indol-3-yl)ethyl)cyclobutanesulfonamide] in this work.

An EC50 of less than 500 nM was found for `CC(C)(C)Cn1cc([C@H](NS(=O)(=O)C2(C)CC2)C(F)(F)F)c2cc(F)c(-c3ccccc3C(F)(F)F)cc21` [Example 375, (S)-1-methyl-N-(2,2,2-trifluoro-1-(5-fluoro-1-neopentyl-6-(2-(trifluoromethyl)phenyl)-1H-indol-3-yl)ethyl)cyclopropane-1-sulfonamide] in this work.

An EC50 greater than 3000 nM was found for `CC(C)(C)Cn1cc([C@H](NS(=O)(=O)C2CC2)C(F)(F)F)c2cc(C(F)(F)F)c(Br)cc21` [Example 376, (S)—N-(1-(6-bromo-1-neopentyl-5-(trifluoromethyl)-1H-indol-3-yl)-2,2,2-trifluoroethyl)cyclopropanesulfonamide] in this work.

An EC50 of 500 to 3000 nM was found for `CC(C)Cn1cc([C@H](NS(=O)(=O)C2CC2)C(F)(F)F)c2cc(F)c(-c3ccn[nH]3)cc21` [Example 377, (S)—N-(2,2,2-trifluoro-1-(5-fluoro-1-isobutyl-6-(1H-pyrazol-5-yl)-1H-indol-3-yl)ethyl)cyclopropanesulfonamide] in this work.

An EC50 of less than 500 nM was found for `CC(C)(C)Cn1cc([C@H](NS(=O)(=O)C2CC2)C(F)(F)F)c2cc(F)c(-c3ccn[nH]3)cc21` [Example 380, N-[(1S)-1-[1-(2,2-dimethylpropyl)-5-fluoro-6-(1H-pyrazol-5-yl)indol-3-yl]-2,2,2-trifluoro-ethyl]cyclopropanesulfonamide] in this work.

An EC50 of 500 to 3000 nM was found for `Cc1cn[nH]c1-c1cc2c(cc1F)c([C@H](NS(=O)(=O)C1CC1)C(F)(F)F)cn2CC(C)(C)C` [Example 381, N-[(1S)-1-[1-(2,2-dimethylpropyl)-5-fluoro-6-(4-methyl-1H-pyrazol-5-yl)indol-3-yl]-2,2,2-trifluoro-ethyl]cyclopropanesulfonamide] in this work.

An EC50 of 500 to 3000 nM was found for `CC(C)(C)Cn1cc([C@H](NS(=O)(=O)C2CC2)C(F)(F)F)c2ccc(-c3ncccn3)cc21` [Example 382, (S)—N-(2,2,2-trifluoro-1-(1-neopentyl-6-(pyrimidin-2-yl)-1H-indol-3-yl)ethyl)cyclopropanesulfonamide] in this work.

An EC50 of 500 to 3000 nM was found for `CC(C)(C)Cn1cc([C@H](NS(=O)(=O)C2CC2)C(F)(F)F)c2ccc(-c3cccnc3)cc21` [Example 383, (S)—N-(2,2,2-trifluoro-1-(1-neopentyl-6-(pyridin-3-yl)-1H-indol-3-yl)ethyl)cyclopropanesulfonamide] in this work.

An EC50 of less than 500 nM was found for `CC(C)(C)Cn1cc([C@H](NS(=O)(=O)C2CC2)C(F)(F)F)c2ccc(-c3ccncc3C#N)cc21` [Example 384, (S)—N-(1-(6-(3-cyanopyridin-4-yl)-1-neopentyl-1H-indol-3-yl)-2,2,2-trifluoroethyl)cyclopropanesulfonamide] in this work.

An EC50 of 500 to 3000 nM was found for `Cc1nc2ccccn2c1-c1ccc2c([C@H](NS(=O)(=O)C3CC3)C(F)(F)F)cn(CC(C)(C)C)c2c1` [Example 385, (S)—N-(2,2,2-trifluoro-1-(6-(2-methylimidazo[1,2-a]pyridin-3-yl)-1-neopentyl-1H-indol-3-yl)ethyl)cyclopropanesulfonamide] in this work.

An EC50 of 500 to 3000 nM was found for `CC(C)(C)Cn1cc([C@H](NS(=O)(=O)C2CC2)C(F)(F)F)c2ccc(-c3cccc(F)c3C#N)cc21` [Example 386, (S)—N-(1-(6-(2-cyano-3-fluorophenyl)-1-neopentyl-1H-indol-3-yl)-2,2,2-trifluoroethyl)cyclopropanesulfonamide] in this work.

An EC50 of 500 to 3000 nM was found for `CC(C)(C)Cn1cc([C@H](NS(=O)(=O)C2CC2)C(F)(F)F)c2ccc(-c3ccc(F)c(C#N)c3)cc21` [Example 387, (S)—N-(1-(6-(3-cyano-4-fluorophenyl)-1-neopentyl-1H-indol-3-yl)-2,2,2-trifluoroethyl)cyclopropanesulfonamide] in this work.

An EC50 of less than 500 nM was found for `Cc1cccc(Cl)c1-c1ccc2c([C@H](NS(=O)(=O)C3CC3)C(F)(F)F)cn(CC(C)(C)C)c2c1` [Example 388, (S)—N-(1-(6-(2-chloro-6-methylphenyl)-1-neopentyl-1H-indol-3-yl)-2,2,2-trifluoroethyl)cyclopropanesulfonamide] in this work.

An EC50 of less than 500 nM was found for `CC(C)(C)Cn1cc([C@H](NS(=O)(=O)C2CC2)C(F)(F)F)c2ccc(-c3c(C#N)cccc3C(F)(F)F)cc21` [Example 389, (S)—N-(1-(6-(2-cyano-6-(trifluoromethyl)phenyl)-1-neopentyl-1H-indol-3-yl)-2,2,2-trifluoroethyl)cyclopropanesulfonamide] in this work.

An EC50 of less than 500 nM was found for `Cc1cccc(C#N)c1-c1ccc2c([C@H](NS(=O)(=O)C3CC3)C(F)(F)F)cn(CC(C)(C)C)c2c1` [Example 390, (S)—N-(1-(6-(2-cyano-6-methylphenyl)-1-neopentyl-1H-indol-3-yl)-2,2,2-trifluoroethyl)cyclopropanesulfonamide] in this work.
